# Laboratory results reported in patent US6951881B2, “(1-substituted-indol-3-yl) alkylidenehydrazinecarboximidamide derivatives as 5-hydroxytryptamine-6 ligands” (Wyeth, priority 2002, dated 2005).
# Target: T1, human cloned 5-HT6 receptors (Homo sapiens, UniProt P50406)
# T1 construct: expressed in transfected cells; host or cells: HeLa cells
# Assay type: binding
# Conditions: not given
# Experimental: This operation is repeated.
# The reaction is allowed to proceed in the dark for 120 min at room temperature, at which time, the bound ligand-receptor complex is filtered off on a 96 well unifilter with a Packard Filtermate® 196 Harvester. The bound complex caught on the filter disk is allowed to air dry and the radioactivity is measured in a Packard TopCount® equipped with six photomultiplier detectors, after the addition of 40.0 μl Microscint®-20 scintillant to each shallow well. The unifilter plate is heat-sealed and counted in a PackardTopCount® with a tritium efficiency of 31.0%.
# Specific binding to the 5-HT6 receptor is defined as the total radioactivity bound less the amount bound in the presence of 10.0 μM unlabeled methiothepin. Binding in the presence of varying concentrations of test compound is expressed as a percentage of specific binding in the absence of test compound. The results are plotted as logit % bound versus log concentration of test compound. Nonlinear regression analysis of data points with a computer assisted program Prism® yields both the IC50 and the Ki values of test compounds with 95% confidence limits.
# The amount of displacement by the test compound is given in percent (%) inhibition and is derived from the following equation: [formula] where B0 is the amount of CPM bound in the presence of the testing agent. NSB represents the CPM bound in the presence of a saturating concentration of a displacer and TB represents the total amount of CPM bound at zero (0) concentration of test compound.
# Alternatively, a linear regression line of decline of data points is plotted, from which the IC50 value can be read off and the Ki value determined by solving the following equation: [formula] where L is the concentration of the radioactive ligand used and KD is the dissociation constant of the ligand for the receptor, both expressed in nM.
# T1 sequence (P50406 whole entry): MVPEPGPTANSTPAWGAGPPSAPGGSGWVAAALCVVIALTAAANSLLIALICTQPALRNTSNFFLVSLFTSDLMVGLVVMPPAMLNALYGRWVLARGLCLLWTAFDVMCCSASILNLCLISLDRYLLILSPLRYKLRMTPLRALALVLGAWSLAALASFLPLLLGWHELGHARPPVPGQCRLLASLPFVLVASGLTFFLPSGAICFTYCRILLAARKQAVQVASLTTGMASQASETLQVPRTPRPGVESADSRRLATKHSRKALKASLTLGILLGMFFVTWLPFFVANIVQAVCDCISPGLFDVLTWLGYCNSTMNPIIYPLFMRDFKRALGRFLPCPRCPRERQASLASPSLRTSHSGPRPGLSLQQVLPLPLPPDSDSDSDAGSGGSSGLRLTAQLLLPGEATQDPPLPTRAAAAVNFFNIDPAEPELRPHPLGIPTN
row,Compound,inhibition at 0.1 µM [%]
1,"C/C(=N\NC(=N)N)c1c(-c2ccc(Cl)cc2Cl)n(C)c2ccc(Cl)cc12 [Example 128, 2-{[5-Chloro-2-(2,4-dichlorophenyl)-1-methyl-1H-indol-3-yl]ethylidene}hydrazinecarboximidamide]",57.3

# Same assay, conditions: [3H]-LSD 3.0 nM, Hela cell membranes; read-out: 5-HT6 Binding Ki
row,Ki [nM],Compound
1,3,COc1ccc(S(=O)(=O)Nc2ccc3c(c2)c(C(C)=NNC(=N)N)cn3C)cc1 [Example 20]
2,1,COc1ccc(S(=O)(=O)Nc2ccc3[nH]cc(C(C)=NNC(=N)N)c3c2)cc1 [Example 19]
3,29,"N=C(N)NN=Cc1c(-c2ccc(F)cc2)[nH]c2ccccc12 [Example 52, 2-[2-(4-fluorophenyl)-1H-indol-3-ylmethylene]hydrazinecarboximidamide]"
4,11,"CN(N=Cc1c(-c2ccccc2)n(C)c2ccccc12)C1=NCCN1 [Example 90, N-(4,5-dihydro-1H-imidazol-2-yl)-N′-[(1-methyl-2-phenyl-1H-indol-3-yl)-methylene]-N-methylhydrazine]"
5,17,"CC(=NNC(=N)N)c1c(-c2ccc(Cl)cc2)[nH]c2ccccc12 [Example 64, 2-{1-[2-(4-chloro-phenyl)-1H-indol-3-yl]-ethylidene}hydrazinecarboximidamide]"

# Same assay, conditions: test compound dose 10 nM; displacement of [3H]-LSD
row,inhibition at 0.01 µM [%],Compound
1,61.1,"N=C(N)NN=C1CCCc2[nH]c3ccc(Br)cc3c21 [Example 159, 2-(6-bromo-1,2,3,9-tetrahydro-4H-carbazol-4-ylidene)hydrazinecarboximidamide]"

# Same assay, conditions: test compound dose 100 nM; displacement of [3H]-LSD
row,Compound,% Inhibition [%]
1,"CC(=NNC(=N)N)c1c(-c2ccc(-c3ccccc3)cc2)n(C)c2ccc(Cl)cc12 [Example 143, 2-[(2-biphenyl-5-chloro-1-methyl-1H-indol-3-yl)-ethylidene]hydrazinecarboximidamide]",34.6
2,"N-benzyl-2-(6-chloro-1,2,3,9-tetrahydro-4H-carbazol-4-ylidene)hydrazinecarboximidamide [Example 182]",47.3

# Same assay, conditions: test compound dose 100 nM; displacement of [3H]-LSD; read-out: % Inhibition
row,inhibition at 0.1 µM [%],Compound
1,55.3,"N=C(NN=C1CCCc2[nH]c3ccc(Cl)cc3c21)NC1CCCC1 [Example 183, 2-(6-chloro-1,2,3,9-tetrahydro-4H-carbazol-4-ylidene)-N-cyclopentylhydrazinecarboximidamide]"
2,18.6,"Cc1ccc2[nH]c3c(c2c1)C(=NN(C)C1=NCCN1)CC(c1ccccc1)C3 (stereo not drawn) [Example 175, 6-methyl-2-phenyl-1,2,3,9-tetrahydro-4H-carbazol-4-one 4,5-dihydro-1H-imidazol-2-yl(methyl)-hydrazone]"
3,26,"CC1(C)CC(=NNC(=N)N)c2c([nH]c3ccc(OC(F)(F)F)cc23)C1 [Example 168, 2-[2,2-dimethyl-6-(trifluoromethoxy)-1,2,3,9-tetrahydro-4H-carbazol-4-ylidene]hydrazinecarboximidamide]"
4,63.2,"C/C(=N\NC(=N)N)c1c(-c2sccc2C)[nH]c2ccccc12 [Example 133, 2-{[2-(2-(3-methyl-thienyl))-1H-indol-3-yl]-ethylidene}hydrazinecarboximidamide]"
5,5.6,"CC(C)c1ccc2[nH]c3c(c2c1)C(=NN(C)C1=NCCN1)CCC3 [Example 179, 6-isopropyl-1,2,3,9-tetrahydro-4H-carbazol-4-one 4,5-dihydro-1H-imidazol-2-yl(methyl)-hydrazone]"
6,26.7,"CC1(C)CC(=NNC(=N)N)c2c([nH]c3ccc(F)cc23)C1 [Example 173, 2-(6-fluoro-2,2-dimethyl-1,2,3,9-tetrahydro-4H-carbazol-4-ylidene)hydrazinecarboximidamide]"
7,35.2,"CC(C)c1ccc2[nH]c3c(c2c1)C(=NNC(=N)N)CC(c1ccccc1)C3 (stereo not drawn) [Example 167, 2-(6-isopropyl-2-phenyl-1,2,3,9-tetrahydro-4H-carbazol-4ylidene)hydrazinecarboximidamide]"

# Same assay, conditions: test compound dose 1000 nM; displacement of [3H]-LSD
inhibition at 1 µM [%],Compound,% Inhibition [%]
99,COc1ccc(S(=O)(=O)Nc2ccc3c(c2)c(C(C)=NNC(=N)N)cn3C)cc1 [Example 20],–
8.7,"N=C(N)NN=C(c1c(-c2ccccc2)n(-c2ccccc2)c2ccccc12)C1CCCCC1 [Example 80, 2-[cyclohexyl-(1,2-diphenyl-1H-indol-3-yl)-methylene]hydrazinecarboximidamide]",–
–,"CN(N=Cc1c(-c2ccc(Cl)cc2)n(CCc2ccccc2)c2ccccc12)C1=NCCN1 [Example 111, N-{[2-(4-chloro-phenyl)-1-(2-phenethyl)-1H-indol-3-yl]-methylene}-N′-(4,5-dihydro-1H-imidazol-2-yl)-N-methylhydrazine]",37.5
19.7,"N=C(N)NN=Cc1c(-c2ccc(Cl)cc2)n(Cc2ccccc2)c2ccccc12 [Example 94, 2-{[1-benzyl-2-(4-chloro-phenyl)-1H-indol-3-yl]-methylene}hydrazinecarboximidamide]",–
24.4,"N=C(N)NN=C(Cc1ccccc1)c1c(-c2ccccc2)[nH]c2ccccc12 [Example 59, 2-[2-phenyl-1-(2-phenyl-1H-indol-3-yl)-ethylidene]hydrazinecarboximidamide]",–
24,"Cc1nc(Cn2c(-c3ccc(Cl)cc3)c(C=NNC(=N)N)c3ccccc32)cs1 [Example 101, 2-({2-(4-chlorophenyl)-1-[(2-methyl-1,3-thiazol-4-yl)methyl]-1H-indol-3-yl}methylidene)-1hydrazinecarboximidamide]",–
88.6,"N=C(N)NN=Cc1c(-c2ccc(F)c(Cl)c2)[nH]c2ccccc12 [Example 48, 2-[2-(3-chloro-4-fluoro-phenyl)-1H-indol-3-ylmethylene]hydrazinecarboximidamide]",–
21.1,"Cc1ccc(Cn2c(-c3ccc(Cl)cc3)c(C=NNC(=N)N)c3ccccc32)cc1 [Example 98, 2-{[2-(4-chloro-phenyl)-1-(4-methyl-benzyl)-1H-indol-3-yl]-methylene}hydrazinecarboximidamide]",–
22.9,"N=C(N)NN=C(Cc1ccccc1)c1c(-c2ccccc2)n(-c2ccccc2)c2ccccc12 [Example 84, 2-[1-(1,2-diphenyl-1H-indol-3-yl)-2-phenyl-ethylidene]hydrazinecarboximidamide]",–
87.2,"CC(=NNC(=N)N)c1c(-c2ccc(Cl)cc2)n(CCC#N)c2ccccc12 [Example 107, 2-{1-[2-(4-chloro-phenyl)-1-(2-cyano-ethyl)-1H-indol-3-yl]-ethylidene}hydrazinecarboximidamide]",–
38.4,"CN=C(NC)NN=Cc1c(-c2ccc(Cl)cc2)[nH]c2ccccc12 [Example 122, 2-{[2-(4-chlorophenyl)-1H-indol-3-yl]methylidene}-N,N′-dimethyl-1hydrazinecarboximidamide]",–
87.1,"CN(N=C1CCCc2[nH]c3ccc(Cl)cc3c21)C1=NCCN1 [Example 154, 6-chloro-1,2,3,9-tetrahydro-4H-carbazol-4-one 4,5-dihydro-1H-imidazol-2-yl(methyl)hydrazone]",–
23,"CN(N=C(CCc1ccccc1)c1c(-c2ccccc2)[nH]c2ccccc12)C1=NCCN1 [Example 69, N-(4,5-dihydro-1H-imidazol-2-yl)-N-methyl-N′-[3-phenyl-1-(2-phenyl-1H-indol-3-yl)-propylidene]hydrazine]",–
49.9,"CCCNC(=NC)NN=Cc1c(-c2ccc(Cl)cc2)[nH]c2ccccc12 [Example 120, 2-{[2-(4-chlorophenyl)-1H-indol-3-yl]methylidene}-N′-methyl-N-propyl-1hydrazinecarboximidamide]",–
97.4,COc1ccc(S(=O)(=O)Nc2ccc3[nH]cc(C(C)=NNC(=N)N)c3c2)cc1 [Example 19],–
33.9,"N=C(N)NN=C(c1c(-c2ccc(F)c(Cl)c2)[nH]c2ccccc12)C1CCCCC1 [Example 56, 2-{[2-(3-chloro-4-fluoro-phenyl)-1H-indol-3-yl]-cyclohexyl-methylene}hydrazinecarboximidamide]",–
–,"Cc1ccc(Cn2c(-c3ccc(Cl)cc3)c(C=NN(C)C3=NCCN3)c3ccccc32)cc1 [Example 99, N-{[2-(4-chloro-phenyl)-1-(4-methyl-benzyl)-1H-indol-3-yl]-methylene}-N′-(4,5-dihydro-1H-imidazol-2-yl)-N-methylhydrazine]",5.7
92,"N#CCCn1c(-c2ccc(Cl)cc2)c(C=NNC(=N)N)c2ccccc21 [Example 108, 2-{[2-(4-chloro-phenyl)-1-(2-cyano-ethyl)-1H-indol-3-yl]-methylene}hydrazinecarboximidamide]",–
97,"Clc1ccc2[nH]c3c(c2c1)C(=NNC1=NCCN1)CCC3 [Example 153, 6-chloro-1,2,3,9-tetrahydro-4H-carbazol-4-one 4,5-dihydro-1H-imidazol-2-ylhydrazone]",–
21.5,"CC(C)C(=NNC(=N)N)c1c(-c2ccccc2)n(-c2ccccc2)c2ccccc12 [Example 82, 2-[1-(1,2-diphenyl-1H-indol-3-yl)-2-methyl-propylidene]hydrazinecarboximidamide]",–
31.7,"N=C(N)NN=C(C=Cc1ccccc1Cl)c1c(-c2ccc(Cl)cc2)[nH]c2ccccc12 [Example 63, 2-{3-(2-chloro-phenyl)-1-[2-(4-chloro-phenyl)-1H-indol-3-yl]-allylidene}hydrazinecarboximidamide]",–
99.9,"CN(N=Cc1c(-c2ccccc2)n(C)c2ccccc12)C1=NCCN1 [Example 90, N-(4,5-dihydro-1H-imidazol-2-yl)-N′-[(1-methyl-2-phenyl-1H-indol-3-yl)-methylene]-N-methylhydrazine]",–
98.5,"CC(=NNC(=N)N)c1c(-c2ccc(Cl)cc2)[nH]c2ccccc12 [Example 64, 2-{1-[2-(4-chloro-phenyl)-1H-indol-3-yl]-ethylidene}hydrazinecarboximidamide]",–
